Laboratory results taken from ChEMBL document CHEMBL1275550, “In vitro activity of doripenem, a carbapenem for the treatment of challenging infections caused by gram-negative bacteria, against recent clinical isolates from the United States” (2008).
≈ marks a conversion by molar mass, not a printed value.

Key:
Enterobacteriaceae [1] = test: Antimicrobial activity against Ceftazidime non-susceptible Enterobacteriaceae by broth microdilution method; assay type: functional
Enterobacteriaceae [2] = test: Antimicrobial activity against ceftazidime-susceptible Enterobacteriaceae assessed as susceptible isolate by broth microdilution method; assay type: functional
Enterobacteriaceae [3] = test: Antimicrobial activity against ceftazidime-susceptible Enterobacteriaceae assessed as intermediate isolate by broth microdilution method; assay type: functional
Enterobacteriaceae [4] = test: Antimicrobial activity against ceftazidime-susceptible Enterobacteriaceae assessed as resistant isolate by broth microdilution method; assay type: functional
Enterobacteriaceae [5] = test: Antimicrobial activity against Ceftazidime non-susceptible Enterobacteriaceae assessed as susceptible isolate by broth microdilution method; assay type: functional
Enterobacteriaceae [6] = test: Antimicrobial activity against Ceftazidime non-susceptible Enterobacteriaceae assessed as intermediate isolate by broth microdilution method; assay type: functional
Enterobacteriaceae [7] = test: Antimicrobial activity against Ceftazidime non-susceptible Enterobacteriaceae assessed as resistant isolate by broth microdilution method; assay type: functional
Escherichia coli [8] = test: Antimicrobial activity against ESBL producing Escherichia coli by broth microdilution method; assay type: functional
Escherichia coli [9] = test: Antimicrobial activity against Non-ESBL Escherichia coli assessed as susceptible isolate by broth microdilution method; assay type: functional
Escherichia coli [10] = test: Antimicrobial activity against Non-ESBL Escherichia coli assessed as intermediate isolate by broth microdilution method; assay type: functional
Escherichia coli [11] = test: Antimicrobial activity against ESBL producing Escherichia coli assessed as susceptible isolate by broth microdilution method; assay type: functional
Escherichia coli [12] = test: Antimicrobial activity against ESBL producing Escherichia coli assessed as intermediate isolate by broth microdilution method; assay type: functional
Escherichia coli [13] = test: Antimicrobial activity against ESBL producing Escherichia coli assessed as resistant isolate by broth microdilution method; assay type: functional
Klebsiella pneumoniae [14] = test: Antimicrobial activity against Non-ESBL Klebsiella pneumoniae by broth microdilution method; assay type: functional
Klebsiella pneumoniae [15] = test: Antimicrobial activity against ESBL producing Klebsiella pneumoniae by broth microdilution method; assay type: functional
Klebsiella pneumoniae [16] = test: Antimicrobial activity against Non-ESBL Klebsiella pneumoniae assessed as susceptible isolate by broth microdilution method; assay type: functional
Klebsiella pneumoniae [17] = test: Antimicrobial activity against Non-ESBL Klebsiella pneumoniae assessed as intermediate isolate by broth microdilution method; assay type: functional
Klebsiella pneumoniae [18] = test: Antimicrobial activity against ESBL producing Klebsiella pneumoniae assessed as susceptible isolate by broth microdilution method; assay type: functional
Klebsiella pneumoniae [19] = test: Antimicrobial activity against ESBL producing Klebsiella pneumoniae assessed as intermediate isolate by broth microdilution method; assay type: functional
Klebsiella pneumoniae [20] = test: Antimicrobial activity against ESBL producing Klebsiella pneumoniae assessed as resistant isolate by broth microdilution method; assay type: functional
Proteus mirabilis [21] = test: Antimicrobial activity against Non-ESBL Proteus mirabilis by broth microdilution method; assay type: functional
Proteus mirabilis [22] = test: Antimicrobial activity against ESBL producing Proteus mirabilis by broth microdilution method; assay type: functional
Pseudomonas aeruginosa [23] = test: Antimicrobial activity against Pseudomonas aeruginosa isolated from non-ICU patient by broth microdilution method; assay type: functional
Pseudomonas aeruginosa [24] = test: Antimicrobial activity against Pseudomonas aeruginosa isolated from ICU patient by broth microdilution method; assay type: functional
Proteus mirabilis [25] = test: Antimicrobial activity against Non-ESBL Proteus mirabilis assessed as susceptible isolate by broth microdilution method; assay type: functional
Proteus mirabilis [26] = test: Antimicrobial activity against Non-ESBL Proteus mirabilis assessed as intermediate isolate by broth microdilution method; assay type: functional
Proteus mirabilis [27] = test: Antimicrobial activity against ESBL producing Proteus mirabilis assessed as susceptible isolate by broth microdilution method; assay type: functional
Proteus mirabilis [28] = test: Antimicrobial activity against ESBL producing Proteus mirabilis assessed as intermediate isolate by broth microdilution method; assay type: functional
Citrobacter [29] = test: Antimicrobial activity against Citrobacter with nonderepressed AmpC beta-lactamsae by broth microdilution method; assay type: functional
Citrobacter [30] = test: Antimicrobial activity against Citrobacter with derepressed AmpC beta-lactamsae by broth microdilution method; assay type: functional
Citrobacter [31] = test: Antimicrobial activity against Citrobacter with nonderepressed AmpC beta-lactamsae assessed as susceptible isolate by broth microdilution method; assay type: functional
Citrobacter [32] = test: Antimicrobial activity against Citrobacter with nonderepressed AmpC beta-lactamsae assessed as intermediate isolate by broth microdilution method; assay type: functional
Citrobacter [33] = test: Antimicrobial activity against Citrobacter with derepressed AmpC beta-lactamsae assessed as susceptible isolate by broth microdilution method; assay type: functional
Citrobacter [34] = test: Antimicrobial activity against Citrobacter with derepressed AmpC beta-lactamsae assessed as intermediate isolate by broth microdilution method; assay type: functional
Serratia marcescens [35] = test: Antimicrobial activity against Ceftazidime non-susceptible Serratia marcescens by broth microdilution method; assay type: functional
Serratia marcescens [36] = test: Antimicrobial activity against Ceftazidime susceptible Serratia marcescens assessed as susceptible isolate by broth microdilution method; assay type: functional
Serratia marcescens [37] = test: Antimicrobial activity against Ceftazidime susceptible Serratia marcescens assessed as intermediate isolate by broth microdilution method; assay type: functional
Serratia marcescens [38] = test: Antimicrobial activity against Ceftazidime non-susceptible Serratia marcescens assessed as susceptible isolate by broth microdilution method; assay type: functional
Serratia marcescens [39] = test: Antimicrobial activity against Ceftazidime non-susceptible Serratia marcescens assessed as intermediate isolate by broth microdilution method; assay type: functional
Pseudomonas aeruginosa [40] = test: Antimicrobial activity against Ceftazidime susceptible Pseudomonas aeruginosa by broth microdilution method; assay type: functional
Pseudomonas aeruginosa [41] = test: Antimicrobial activity against imipenem non-susceptible Pseudomonas aeruginosa by broth microdilution method; assay type: functional
Pseudomonas aeruginosa [42] = test: Antimicrobial activity against Ceftazidime susceptible Pseudomonas aeruginosa assessed as susceptible isolate by broth microdilution method; assay type: functional
Pseudomonas aeruginosa [43] = test: Antimicrobial activity against Ceftazidime susceptible Pseudomonas aeruginosa assessed as intermediate isolate by broth microdilution method; assay type: functional
Pseudomonas aeruginosa [44] = test: Antimicrobial activity against Ceftazidime susceptible Pseudomonas aeruginosa assessed as resistant isolate by broth microdilution method; assay type: functional
Pseudomonas aeruginosa [45] = test: Antimicrobial activity against Ceftazidime non-susceptible Pseudomonas aeruginosa assessed as susceptible isolate by broth microdilution method; assay type: functional
Pseudomonas aeruginosa [46] = test: Antimicrobial activity against Ceftazidime non-susceptible Pseudomonas aeruginosa assessed as intermediate isolate by broth microdilution method; assay type: functional
Pseudomonas aeruginosa [47] = test: Antimicrobial activity against Ceftazidime non-susceptible Pseudomonas aeruginosa assessed as resistant isolate by broth microdilution method; assay type: functional
Pseudomonas aeruginosa [48] = test: Antimicrobial activity against imipenem susceptible Pseudomonas aeruginosa assessed as susceptible isolate by broth microdilution method; assay type: functional
Pseudomonas aeruginosa [49] = test: Antimicrobial activity against imipenem susceptible Pseudomonas aeruginosa assessed as intermediate isolate by broth microdilution method; assay type: functional
Pseudomonas aeruginosa [50] = test: Antimicrobial activity against imipenem susceptible Pseudomonas aeruginosa assessed as resistant isolate by broth microdilution method; assay type: functional
Pseudomonas aeruginosa [51] = test: Antimicrobial activity against imipenem non-susceptible Pseudomonas aeruginosa assessed as susceptible isolate by broth microdilution method; assay type: functional
Pseudomonas aeruginosa [52] = test: Antimicrobial activity against imipenem non-susceptible Pseudomonas aeruginosa assessed as intermediate isolate by broth microdilution method; assay type: functional
Pseudomonas aeruginosa [53] = test: Antimicrobial activity against imipenem non-susceptible Pseudomonas aeruginosa assessed as resistant isolate by broth microdilution method; assay type: functional
Acinetobacter [54] = test: Antimicrobial activity against imipenem susceptible Acinetobacter by broth microdilution method; assay type: functional
Acinetobacter [55] = test: Antimicrobial activity against imipenem non-susceptible Acinetobacter by broth microdilution method; assay type: functional
Acinetobacter [56] = test: Antimicrobial activity against imipenem susceptible Acinetobacter assessed as susceptible isolate by broth microdilution method; assay type: functional
Acinetobacter [57] = test: Antimicrobial activity against imipenem susceptible Acinetobacter assessed as intermediate isolate by broth microdilution method; assay type: functional
Acinetobacter [58] = test: Antimicrobial activity against imipenem susceptible Acinetobacter assessed as resistant isolate by broth microdilution method; assay type: functional
Acinetobacter [59] = test: Antimicrobial activity against imipenem non-susceptible Acinetobacter assessed as susceptible isolate by broth microdilution method; assay type: functional
Acinetobacter [60] = test: Antimicrobial activity against imipenem non-susceptible Acinetobacter assessed as intermediate isolate by broth microdilution method; assay type: functional
Acinetobacter [61] = test: Antimicrobial activity against imipenem non-susceptible Acinetobacter assessed as resistant isolate by broth microdilution method; assay type: functional
Pseudomonas aeruginosa [62] = test: Antimicrobial activity against Pseudomonas aeruginosa isolated from patient by broth microdilution method
Pseudomonas aeruginosa [63] = test: Antimicrobial activity against Pseudomonas aeruginosa isolated from non-ICU patient by broth microdilution method
Pseudomonas aeruginosa [64] = test: Antimicrobial activity against Pseudomonas aeruginosa isolated from ICU patient assessed as resistant isolate by broth microdilution method
Pseudomonas aeruginosa [65] = test: Antimicrobial activity against Pseudomonas aeruginosa isolated from ICU patient assessed as susceptible isolate by broth microdilution method
Pseudomonas aeruginosa [66] = test: Antimicrobial activity against Pseudomonas aeruginosa isolated from ICU patient assessed as intermediate isolate by broth microdilution method
Pseudomonas aeruginosa [67] = test: Antimicrobial activity against Pseudomonas aeruginosa isolated from non-ICU patient assessed as resistant isolate by broth microdilution method

## CO/N=C(\C(=O)N[C@@H]1C(=O)N2C(C(=O)[O-])=C(C[N+]3(C)CCCC3)CS[C@H]12)c1csc(N)n1
Enterobacteriaceae [1]
  MIC50: 2 µg/mL (≈ 4.16 µM)
  MIC90: 32 µg/mL (≈ 66.6 µM)
Enterobacteriaceae [2]
  Activity: 99.8%
Enterobacteriaceae [3]
  Activity: 0%
Enterobacteriaceae [4]
  Activity: 0.1%
Enterobacteriaceae [5]
  Activity: 82.4%
Enterobacteriaceae [6]
  Activity: 5.6%
Enterobacteriaceae [7]
  Activity: 12%
Escherichia coli [8]
  MIC50: 32 µg/mL (≈ 66.6 µM)
  MIC90: > 32 µg/mL
Escherichia coli [9]
  Activity: 99.8%
Escherichia coli [10]
  Activity: 0.1%
Escherichia coli [11]
  Activity: 40%
Escherichia coli [12]
  Activity: 3.3%
Escherichia coli [13]
  Activity: 56.7%
Klebsiella pneumoniae [14]
  MIC50: 0.03 µg/mL (≈ 0.0624 µM)
  MIC90: 0.06 µg/mL (≈ 0.125 µM)
Klebsiella pneumoniae [15]
  MIC50: 8 µg/mL (≈ 16.6 µM)
  MIC90: > 32 µg/mL
Klebsiella pneumoniae [16]
  Activity: 99.7%
Klebsiella pneumoniae [17]
  Activity: 0.2%
Klebsiella pneumoniae [18]
  Activity: 68.2%
Klebsiella pneumoniae [19]
  Activity: 2.3%
Klebsiella pneumoniae [20]
  Activity: 29.5%
Proteus mirabilis [21]
  MIC50: 0.03 µg/mL (≈ 0.0624 µM)
  MIC90: 0.06 µg/mL (≈ 0.125 µM)
Proteus mirabilis [22]
  MIC: 1 µg/mL (≈ 2.08 µM)
Pseudomonas aeruginosa [23]
  MIC50: 4 µg/mL (≈ 8.32 µM)
  MIC90: 16 µg/mL (≈ 33.3 µM)
Pseudomonas aeruginosa [24]
  MIC50: 4 µg/mL (≈ 8.32 µM)
  MIC90: 16 µg/mL (≈ 33.3 µM)
Proteus mirabilis [25]
  Activity: 99.7%
Proteus mirabilis [26]
  Activity: 0.2%
Proteus mirabilis [27]
  Activity: 100%
Proteus mirabilis [28]
  Activity: 0%
Citrobacter [29]
  MIC50: 0.03 µg/mL (≈ 0.0624 µM)
  MIC90: 0.06 µg/mL (≈ 0.125 µM)
Citrobacter [30]
  MIC50: 1 µg/mL (≈ 2.08 µM)
  MIC90: 2 µg/mL (≈ 4.16 µM)
Citrobacter [31]
  Activity: 99.6%
Citrobacter [32]
  Activity: 0.2%
Citrobacter [33]
  Activity: 100%
Citrobacter [34]
  Activity: 0%
Serratia marcescens [35]
  MIC50: 4 µg/mL (≈ 8.32 µM)
  MIC90: 16 µg/mL (≈ 33.3 µM)
Serratia marcescens [36]
  Activity: 100%
Serratia marcescens [37]
  Activity: 0%
Serratia marcescens [38]
  Activity: 80%
Serratia marcescens [39]
  Activity: 10%
Pseudomonas aeruginosa [40]
  MIC50: 2 µg/mL (≈ 4.16 µM)
  MIC90: 8 µg/mL (≈ 16.6 µM)
Pseudomonas aeruginosa [41]
  MIC50: 8 µg/mL (≈ 16.6 µM)
  MIC90: 32 µg/mL (≈ 66.6 µM)
Pseudomonas aeruginosa [42]
  Activity: 95.2%
Pseudomonas aeruginosa [43]
  Activity: 3.8%
Pseudomonas aeruginosa [44]
  Activity: 1%
Pseudomonas aeruginosa [45]
  Activity: 25.5%
Pseudomonas aeruginosa [46]
  Activity: 48.2%
Pseudomonas aeruginosa [47]
  Activity: 26.4%
Pseudomonas aeruginosa [48]
  Activity: 90.7%
Pseudomonas aeruginosa [49]
  Activity: 7%
Pseudomonas aeruginosa [50]
  Activity: 2.2%
Pseudomonas aeruginosa [51]
  Activity: 72.5%
Pseudomonas aeruginosa [52]
  Activity: 16.9%
Pseudomonas aeruginosa [53]
  Activity: 10.6%
Acinetobacter [54]
  MIC50: 4 µg/mL (≈ 8.32 µM)
  MIC90: 32 µg/mL (≈ 66.6 µM)
Acinetobacter [55]
  MIC50: 32 µg/mL (≈ 66.6 µM)
  MIC90: > 32 µg/mL
Acinetobacter [56]
  Activity: 73.1%
Acinetobacter [57]
  Activity: 11.8%
Acinetobacter [58]
  Activity: 15.1%
Acinetobacter [59]
  Activity: 2%
Acinetobacter [60]
  Activity: 33.3%
Acinetobacter [61]
  Activity: 64.7%
Pseudomonas aeruginosa [62]
  Activity: 8.2%
Pseudomonas aeruginosa [63]
  Activity: 86.8%
Pseudomonas aeruginosa [64]
  Activity: 6.5%
Pseudomonas aeruginosa [65]
  Activity: 79.9%
Pseudomonas aeruginosa [66]
  Activity: 13.7%
Pseudomonas aeruginosa [67]
  Activity: 5.1%
